Data reported in ChEMBL document CHEMBL6134893, “The Exploration of Indole-Based LSD1-Targeted Inhibitors for Enhanced Immune Response in Gastric Cancer via the PD-L1/PD-1 Axis” (J Med Chem, 2025).
Active and inactive are the calls of the source. No cut-off for these calls is given here.

What was measured:
MKN-45 [1] = assay: Inhibition of cell invasion in human MKN-45 cells at 1 to 4 uM incubated for 2 days by crystal violet staining based transwell assay; type: functional; details: dose 1-4 µM, time 2.0 day
[2] = target: Lysine-specific histone demethylase 1A (Mus musculus) (UniProt Q6ZQ88); assay: Inhibition of LSD1 in mouse MFC cells assessed as reduction in PD-L1 level incubated for 5 days by Western blot analysis; type: cell-based; details: time 5.0 day
MKN-45 [3] = assay: Effect on H3K4me3 demethylation in human MKN-45 cells at 1 to 4 uM incubated for 5 days by Western blot analysis; type: functional, cell-based; details: dose 1-4 µM, time 5.0 day
[4] = target: Lysine-specific histone demethylase 1A (Mus musculus) (UniProt Q6ZQ88); assay: Inhibition of LSD1 in mouse MFC cells assessed as accumulation of membrane PD-L1 at 1 uM incubated for 5 days (reference value: 63.0 %); type: cell-based; set-up: scale not given: the % may be the effect or the level left; details: time 5.0 day
[5] = Toxicity in 615 mouse implanted with mouse MFC cells assessed as histological change in heart at 10 to 50 mg/kg, IG treated daily for 14 days by H and E staining based analysis; type: organism-based; details: in vivo, po, 336 h, dose 10-50 mg/kg, time 14 day
MKN-45 [6] = assay: Induction of T-cell killing response in human MKN-45 cells assessed as decrease in cell viability pretreated for 5 days followed by co-culturing with human PBMC-derived T cells for 4 days by CCK8 assay; type: functional, cell-based; details: dose 1-4 µM, time 5.0 day
Mus musculus [7] = assay: In vivo induction of T-cell response in mouse MFC cells implanted in 615 mouse assessed as increase in IFN-gamma mRNA level at 10 to 50 mg/kg, IG treated daily for 14 days by PCR analysis; type: functional, organism-based; details: dose 10-50 mg/kg, time 14.0 day
MFC [8] = assay: Antitumor activity against mouse MFC cells implanted in 615 mouse assessed as decrease PD-L1 expression treated intragastrically daily for 14 days by Western blot analysis; type: functional, cell-based; details: dose 10-50 mg/kg, route ig, time 14.0 day
MKN-45 [9] = assay: Induction of T-cell killing response in human MKN-45 cells harboring LSD1-KO assessed as decrease in cell viability at 1 to 4 uM pretreated for 5 days followed by co-culturing with human PBMC-derived T cells for 4 days by CCK8 assay; type: functional, cell-based; details: dose 1-4 µM, time 5.0 day
[10] = Toxicity in 615 mouse implanted with mouse MFC cells assessed as histological change in spleen at 10 to 50 mg/kg, IG treated daily for 14 days by H and E staining based analysis; type: organism-based; details: in vivo, po, 336 h, dose 10-50 mg/kg, time 14 day
MFC [11] = assay: Induction of T-cell killing response in mouse MFC cells assessed as increase in IFN-gamma secretion at 1 to 4 uM pretreated for 5 days followed by co-culturing with human PBMC-derived T cells for 4 days by ELISA; type: functional, cell-based; details: dose 1-4 µM, time 5.0 day
[12] = Toxicity in 615 mouse implanted with mouse MFC cells assessed as histological change in lung at 10 to 50 mg/kg, IG treated daily for 14 days by H and E staining based analysis; type: organism-based; details: in vivo, po, 336 h, dose 10-50 mg/kg, time 14 day
[13] = target: Lysine-specific histone demethylase 1A (Mus musculus) (UniProt Q6ZQ88); assay: Inhibition of LSD1 in mouse MFC cells assessed as accumulation of membrane PD-L1 at 4 uM incubated for 5 days (reference value: 63.0 %); type: cell-based; set-up: scale not given: the % may be the effect or the level left; details: time 5.0 day
MFC [14] = assay: Antitumor activity against mouse MFC cells implanted in 615 mouse assessed as decrease Ki67 expression at 10 to 50 mg/kg, IG treated daily for 14 days by IHC analysis; type: functional, organism-based; details: dose 10-50 mg/kg, time 14.0 day
MFC [15] = assay: In vivo induction of T-cell infiltration in mouse MFC cells implanted in 615 mouse assessed as increase in CD3+ CD8+ T cells at 10 mg/kg, IG treated daily for 14 days by flow cytometry (reference value: 2.79 %); type: functional; details: time 14 day
[16] = target: T1, Lysine-specific histone demethylase 1A (Homo sapiens, UniProt O60341); assay: Inhibition of LSD1 in human MKN-45 cells assessed as accumulation of membrane PD-L1 at 4 uM incubated for 5 days (reference value: 58.4 %); type: cell-based; set-up: scale not given: the % may be the effect or the level left; details: time 5.0 day
MKN-45 [17] = assay: Effect on PD-L1 expression in human MKN-45 cells harboring LSD1-KO at 1 to 4 uM incubated for 5 days by Western blot analysis; type: functional, cell-based; details: dose 1-4 µM, time 5.0 day
[18] = target: T1, Lysine-specific histone demethylase 1A; assay: Induction of thermal stabilization of LSD1 in human MKN-45 cells incubated for 5 days followed by heat exposure at 40 to 55 degreeC by CETSA; type: cell-based; details: time 5.0 day
MFC [19] = assay: Induction of T-cell killing response in mouse MFC cells assessed as decrease in cell viability at 1 to 4 uM pretreated for 5 days followed by co-culturing with human PBMC-derived T cells for 4 days by CCK8 assay; type: functional, cell-based; details: dose 1-4 µM, time 5.0 day
MKN-45 [20] = assay: Induction of T-cell killing response in human MKN-45 cells assessed as increase in IFN-gamma secretion at 1 to 4 uM pretreated for 5 days followed by co-culturing with human PBMC-derived T cells for 4 days by ELISA; type: functional, cell-based; details: dose 1-4 µM, time 5.0 day
[21] = target: T1, Lysine-specific histone demethylase 1A; assay: Inhibition of LSD1 in human MKN-45 cells; type: cell-based
[22] = Toxicity in 615 mouse implanted with mouse MFC cells assessed as histological change in kidney at 10 to 50 mg/kg, IG treated daily for 14 days by H and E staining based analysis; type: organism-based; details: in vivo, po, 336 h, dose 10-50 mg/kg, time 14 day
[23] = target: T1, Lysine-specific histone demethylase 1A; assay: Inhibition of LSD1 in human MKN-45 cells assessed as accumulation of membrane PD-L1 at 2 uM incubated for 5 days; type: cell-based; set-up: scale not given: the % may be the effect or the level left; details: time 5.0 day
[24] = target: T1, Lysine-specific histone demethylase 1A; assay: Inhibition of LSD1 in human MKN-45 cells assessed as accumulation of membrane PD-L1 at 1 uM incubated for 5 days (reference value: 58.4 %); type: cell-based; set-up: scale not given: the % may be the effect or the level left; details: time 5.0 day
[25] = target: T1, Lysine-specific histone demethylase 1A; assay: Inhibition of recombinant LSD1 (unknown origin) extracted from Escherichia coli BL21 (DE3) using H3K4me2 peptide as substrate in presence of […] by Amplex Red assay
MKN-45 [26] = assay: Effect on H3K4me2 demethylation in human MKN-45 cells harboring LSD1-KO at 1 to 4 uM incubated for 5 days by Western blot analysis; type: functional, cell-based; details: dose 1-4 µM, time 5.0 day
MFC [27] = assay: In vivo induction of T-cell infiltration in mouse MFC cells implanted in 615 mouse assessed as increase in CD3+ CD8+ T cells at 50 mg/kg, IG treated daily for 14 days by flow cytometry (reference value: 2.79 %); type: functional; details: time 14 day
[28] = target: T1, Lysine-specific histone demethylase 1A; assay: Inhibition of LSD1 in human MKN-45 cells assessed as decrease in demethylation of H3K4me2 incubated for 5 days by Western blot analysis; type: cell-based; details: dose 1-4 µM, time 5.0 day
[29] = Toxicity in 615 mouse implanted with mouse MFC cells assessed as body weight change at 10 to 50 mg/kg, IG treated daily for 14 days; type: organism-based; details: in vivo, po, 336 h, dose 10-50 mg/kg, time 14 day
[30] = Toxicity in 615 mouse implanted with mouse MFC cells assessed as histological change in liver at 10 to 50 mg/kg, IG treated daily for 14 days by H and E staining based analysis; type: organism-based; details: in vivo, po, 336 h, dose 10-50 mg/kg, time 14 day
MKN-45 [31] = assay: Induction of T-cell killing response in human MKN-45 cells assessed as increase in IL-2 secretion at 1 to 4 uM pretreated for 5 days followed by co-culturing with human PBMC-derived T cells for 4 days by ELISA; type: functional, cell-based; details: dose 1-4 µM, time 5.0 day
[32] = target: Lysine-specific histone demethylase 1A (Mus musculus) (UniProt Q6ZQ88); assay: Inhibition of LSD1 in mouse MFC cells assessed as accumulation of membrane PD-L1 at 2 uM incubated for 5 days; type: cell-based; set-up: scale not given: the % may be the effect or the level left; details: time 5.0 day
[33] = target: T1, Lysine-specific histone demethylase 1A; assay: Inhibition of LSD1 in human MKN-45 cells assessed as decrease in demethylation of H3K4me1 incubated for 5 days by Western blot analysis; type: cell-based; details: dose 1-4 µM, time 5.0 day
MFC [34] = assay: Antitumor activity against mouse MFC cells implanted in 615 mouse assessed as tumor growth suppression treated intragastrically daily for 14 days; type: functional, cell-based; details: dose 10-50 mg/kg, route ig, time 14.0 day
[35] = target: T1, Lysine-specific histone demethylase 1A; assay: Inhibition of LSD1 in human MKN-45 cells assessed as reduction in PD-L1 level incubated for 5 days by Western blot analysis; type: cell-based; details: dose 1-4 µM, time 5.0 day
[36] = target: Programmed cell death protein 1/Programmed cell death 1 ligand 1 (Homo sapiens) (UniProt Q15116+Q9NZQ7); assay: Inhibition of PD-1/PD-L1 interaction in human MKN-45 cells pretreated for 5 days followed by PD-1-Fc addition by DAPI staining based confocal microscopy; type: cell-based; details: dose 1-4 µM, time 5.0 day
MFC [37] = assay: In vivo induction of T-cell infiltration in mouse MFC cells implanted in 615 mouse assessed as increase in CD3+ CD8+ T cells at 25 mg/kg, IG treated daily for 14 days by flow cytometry (reference value: 2.79 %); type: functional; details: time 14 day
MKN-45 [38] = assay: Effect on H3K4me1 demethylation in human MKN-45 cells harboring LSD1-KO at 1 to 4 uM incubated for 5 days by Western blot analysis; type: functional, cell-based; details: dose 1-4 µM, time 5.0 day
Mus musculus [39] = assay: In vivo induction of T-cell response in mouse MFC cells implanted in 615 mouse assessed as increase in IL-2 mRNA level at 10 to 50 mg/kg, IG treated daily for 14 days by PCR analysis; type: functional, organism-based; details: dose 10-50 mg/kg, time 14.0 day
MKN-45 [40] = assay: Inhibition of cell migration in human MKN-45 cells at 1 to 4 uM incubated up to 48 hrs by wound healing assay; type: functional, cell-based; details: dose 1-4 µM
MFC [41] = assay: Antitumor activity against mouse MFC cells implanted in 615 mouse assessed as decrease in tumor weight at 10 to 50 mg/kg, IG treated daily for 14 days; type: functional, organism-based; details: dose 10-50 mg/kg, time 14.0 day

C=C1C(=O)OCC1C(O)c1cn(S(=O)(=O)c2ccc(N(C)C)c([N+](=O)[O-])c2)c2ccc(Cl)cc12 (stereo unspecified)
inhibition (MKN-45 [1]): Active; Effect Was Better Than Ory-1001 | inhibition [2]: Dose-dependent-effect | Activity (MKN-45 [3]): No effect | Activity [4]: 59.7% | Activity [5]: Non-toxic | Activity (MKN-45 [6]): Dose-dependent-effect | Activity (Mus musculus [7]): Active | Activity (MFC [8]): Dose-dependent-effect | Activity (MKN-45 [9]): inactive | Activity [10]: Non-toxic | Activity (MFC [11]): Active | Activity [12]: Non-toxic | Activity [13]: 16% | Activity (MFC [14]): Active | Activity (MFC [15]): 4.92% | Activity [16]: 39.1% | Activity (MKN-45 [17]): No effect | Activity [18]: Active | Activity (MFC [19]): Active | Activity (MKN-45 [20]): Active | IC50 [21]: 80.3 nM | Activity [22]: Non-toxic | Activity [23]: 47.3% | Activity [24]: 49.5% | IC50 [25]: 80 nM | Activity (MKN-45 [26]): No effect | Activity (MFC [27]): 16.6% | inhibition [28]: Dose-dependent-effect | Activity [29]: Non-toxic | Activity [30]: Non-toxic | Activity (MKN-45 [31]): Active | Activity [32]: 45.6% | inhibition [33]: Dose-dependent-effect | Activity (MFC [34]): Dose-dependent-effect | inhibition [35]: Dose-dependent-effect | inhibition [36]: Dose-dependent-effect | Activity (MFC [37]): 6.46% | Activity (MKN-45 [38]): No effect | Activity (Mus musculus [39]): Active | inhibition (MKN-45 [40]): Active; Effect Was Better Than Ory-1001 | Activity (MFC [41]): Active
